Source: ChEMBL document CHEMBL3784933, “Synthesis and antitumor evaluation of trimethoxyanilides based on 4(3H)-quinazolinone scaffolds” (2016)

Tests used:
Assay type in all cases: functional
A498 = test: Cytotoxicity against human A498 cells assessed as growth inhibition at 10 uM after 48 hrs by SRB assay; details: A498, 48 h, read-out: GI
[1] = Cytotoxicity against human BT549 cells assessed as growth inhibition at 10 uM after 48 hrs by SRB assay; details: BT-549, 48 h, read-out: GI
MDA-MB-231 = test: Cytotoxicity against human MDA-MB-231 cells assessed as growth inhibition at 10 uM after 48 hrs by SRB assay; details: MDA-MB-231, 48 h, read-out: GI
SR = test: Cytotoxicity against human SR cells assessed as growth inhibition at 10 uM after 48 hrs by SRB assay; details: read-out: GI
[2] = Cytotoxicity against human HOP62 cells assessed as growth inhibition at 10 uM after 48 hrs by SRB assay; details: HOP-62, 48 h, read-out: GI
U-251 = test: Cytotoxicity against human U251 cells assessed as growth inhibition at 10 uM after 48 hrs by SRB assay; details: U-251, 48 h, read-out: GI
[3] = Cytotoxicity against human Caki1 cells assessed as growth inhibition at 10 uM after 48 hrs by SRB assay; details: CAKI-1, 48 h, read-out: GI
[4] = Cytotoxicity against human SF295 cells assessed as growth inhibition at 10 uM after 48 hrs by SRB assay; details: SF-295, 48 h, read-out: GI
[5] = Cytotoxicity against human IGROV1 cells assessed as growth inhibition at 10 uM after 48 hrs by SRB assay; details: IGROV-1, 48 h, read-out: GI
SN12C = test: Cytotoxicity against human SN12C cells assessed as growth inhibition at 10 uM after 48 hrs by SRB assay; details: read-out: GI
[6] = Cytotoxicity against human PC3 cells assessed as growth inhibition at 10 uM after 48 hrs by SRB assay; details: PC-3, 48 h, read-out: GI
A549 = test: Cytotoxicity against human A549 cells assessed as growth inhibition at 10 uM after 48 hrs by SRB assay; details: A549, 48 h, read-out: GI
[7] = Cytotoxicity against human UACC62 cells assessed as growth inhibition at 10 uM after 48 hrs by SRB assay; details: UACC-62, 48 h, read-out: GI
MCF7 = test: Cytotoxicity against human MCF7 cells assessed as growth inhibition at 10 uM after 48 hrs by SRB assay; details: MCF7, 48 h, read-out: GI
NCI-H23 = test: Cytotoxicity against human NCI-H23 cells assessed as growth inhibition at 10 uM after 48 hrs by SRB assay; details: NCI-H23, 48 h, read-out: GI
[8] = Cytotoxicity against human OVCAR3 cells assessed as growth inhibition at 10 uM after 48 hrs by SRB assay; details: OVCAR-3, 48 h, read-out: GI
[9] = Cytotoxicity against human UO31 cells assessed as growth inhibition at 10 uM after 48 hrs by SRB assay; details: UO-31, 48 h, read-out: GI
[10] = Cytotoxicity against human RPMI8226 cells assessed as growth inhibition at 10 uM after 48 hrs by SRB assay; details: RPMI-8226, 48 h, read-out: GI
SK-MEL-5 = test: Cytotoxicity against human SK-MEL-5 cells assessed as growth inhibition at 10 uM after 48 hrs by SRB assay; details: SK-MEL-5, 48 h, read-out: GI
[11] = Cytotoxicity against human OVCAR4 cells assessed as growth inhibition at 10 uM after 48 hrs by SRB assay; details: OVCAR-4, 48 h, read-out: GI
[12] = Cytotoxicity against human LOXIMVI cells assessed as growth inhibition at 10 uM after 48 hrs by SRB assay; details: LOX IMVI, read-out: GI
NCI-H460 = test: Cytotoxicity against human NCI-H460 cells assessed as growth inhibition at 10 uM after 48 hrs by SRB assay; details: NCI-H460, 48 h, read-out: GI
NCI-H522 = test: Cytotoxicity against human NCI-H522 cells assessed as growth inhibition at 10 uM after 48 hrs by SRB assay; details: NCI-H522, 48 h, read-out: GI
[13] = Cytotoxicity against human UACC257 cells assessed as growth inhibition at 10 uM after 48 hrs by SRB assay; details: UACC-257, 48 h, read-out: GI
[14] = Cytotoxicity against human DU145 cells assessed as growth inhibition at 10 uM after 48 hrs by SRB assay; details: DU-145, 48 h, read-out: GI
CCRF-CEM = test: Cytotoxicity against human CCRF-CEM cells assessed as growth inhibition at 10 uM after 48 hrs by SRB assay; details: read-out: GI
NCI-H226 = test: Cytotoxicity against human NCI-H226 cells assessed as growth inhibition at 10 uM after 48 hrs by SRB assay; details: NCI-H226, 48 h, read-out: GI
[15] = Cytotoxicity against human SF268 cells assessed as growth inhibition at 10 uM after 48 hrs by SRB assay; details: SF-268, 48 h, read-out: GI
[16] = Cytotoxicity against human SNB75 cells assessed as growth inhibition at 10 uM after 48 hrs by SRB assay; details: SNB-75, 48 h, read-out: GI
SK-MEL-2 = test: Cytotoxicity against human SK-MEL-2 cells assessed as growth inhibition at 10 uM after 48 hrs by SRB assay; details: SK-MEL-2, 48 h, read-out: GI
[17] = Cytotoxicity against human SNB19 cells assessed as growth inhibition at 10 uM after 48 hrs by SRB assay; details: SNB-19, 48 h, read-out: GI
[18] = Cytotoxicity against human NCI-H322 cells assessed as growth inhibition at 10 uM after 48 hrs by SRB assay; details: NCI-H322, 48 h, read-out: GI
MDA-MB-468 = test: Cytotoxicity against human MDA-MB-468 cells assessed as growth inhibition at 10 uM after 48 hrs by SRB assay; details: MDA-MB-468, 48 h, read-out: GI
[19] = Cytotoxicity against human HOP92 cells assessed as growth inhibition at 10 uM after 48 hrs by SRB assay; details: HOP-92, 48 h, read-out: GI
[20] = Cytotoxicity against human SF539 cells assessed as growth inhibition at 10 uM after 48 hrs by SRB assay; details: SF-539, 48 h, read-out: GI
ACHN = test: Cytotoxicity against human ACHN cells assessed as growth inhibition at 10 uM after 48 hrs by SRB assay; details: read-out: GI
[21] = Cytotoxicity against human RXF393 cells assessed as growth inhibition at 10 uM after 48 hrs by SRB assay; details: RXF 393, 48 h, read-out: GI
[22] = Cytotoxicity against human SKOV3 cells assessed as growth inhibition at 10 uM after 48 hrs by SRB assay; details: SK-OV-3, 48 h, read-out: GI
[23] = Cytotoxicity against human OVCAR8 cells assessed as growth inhibition at 10 uM after 48 hrs by SRB assay; details: OVCAR-8, 48 h, read-out: GI
[24] = Cytotoxicity against human HCT116 cells assessed as growth inhibition at 10 uM after 48 hrs by SRB assay; details: HCT-116, 48 h, read-out: GI
Malme-3M = test: Cytotoxicity against human MALME-3M cells assessed as growth inhibition at 10 uM after 48 hrs by SRB assay; details: read-out: GI
T47D = test: Cytotoxicity against human T47D cells assessed as growth inhibition at 10 uM after 48 hrs by SRB assay; details: read-out: GI
[25] = Cytotoxicity against human NCI-ADR-RES cells assessed as growth inhibition at 10 uM after 48 hrs by SRB assay; details: read-out: GI

Question: With `COc1cc(NC(=O)CCSc2nc3ccccc3c(=O)n2-c2ccc(F)cc2)cc(OC)c1OC` as the molecule, how does the inhibition of growth at 10 µM (A498) read?
Answer: 22%

Question: What about the inhibition of growth at 10 µM [1] of the same molecule?
Answer: 28%

Question: And the inhibition of growth at 10 µM (MDA-MB-231)?
Answer: 47%

Question: What about the inhibition of growth at 10 µM (SR) of the same molecule?
Answer: 11%

Question: And the inhibition of growth at 10 µM [2]?
Answer: 40%

Question: And the inhibition of growth at 10 µM (U-251)?
Answer: 42%

Question: And the inhibition of growth at 10 µM [3]?
Answer: 22%

Question: And the inhibition of growth at 10 µM [4]?
Answer: 40%

Question: And the inhibition of growth at 10 µM [5]?
Answer: 25%

Question: And the inhibition of growth at 10 µM (SN12C)?
Answer: 20%

Question: And the inhibition of growth at 10 µM [6]?
Answer: 25%

Question: What about the inhibition of growth at 10 µM (A549) of the same molecule?
Answer: 28%

Question: And the inhibition of growth at 10 µM [7]?
Answer: 32%

Question: What about the inhibition of growth at 10 µM (MCF7) of the same molecule?
Answer: 22%

Question: What about the inhibition of growth at 10 µM (NCI-H23) of the same molecule?
Answer: 21%

Question: What about the inhibition of growth at 10 µM [8] of the same molecule?
Answer: 18%

Question: And the inhibition of growth at 10 µM [9]?
Answer: 23%

Question: What about the inhibition of growth at 10 µM [10] of the same molecule?
Answer: 17%

Question: And the inhibition of growth at 10 µM (SK-MEL-5)?
Answer: 11%

Question: What about the inhibition of growth at 10 µM [11] of the same molecule?
Answer: 104%

Question: And the inhibition of growth at 10 µM [12]?
Answer: 12%

Question: What about the inhibition of growth at 10 µM (NCI-H460) of the same molecule?
Answer: 18%

Question: What about the inhibition of growth at 10 µM (NCI-H522) of the same molecule?
Answer: 68%

Question: What about the inhibition of growth at 10 µM [13] of the same molecule?
Answer: 15%

Question: And the inhibition of growth at 10 µM [14]?
Answer: 21%

Question: What about the inhibition of growth at 10 µM (CCRF-CEM) of the same molecule?
Answer: 67%

Question: What about the inhibition of growth at 10 µM (NCI-H226) of the same molecule?
Answer: 38%

Question: And the inhibition of growth at 10 µM [15]?
Answer: 34%

Question: What about the inhibition of growth at 10 µM [16] of the same molecule?
Answer: 117%

Question: And the inhibition of growth at 10 µM (SK-MEL-2)?
Answer: 47%

Question: And the inhibition of growth at 10 µM [17]?
Answer: 32%

Question: And the inhibition of growth at 10 µM [18]?
Answer: 14%

Question: And the inhibition of growth at 10 µM (MDA-MB-468)?
Answer: 21%

Question: And the inhibition of growth at 10 µM [19]?
Answer: 103%

Question: What about the inhibition of growth at 10 µM [20] of the same molecule?
Answer: 34%

Question: And the inhibition of growth at 10 µM (ACHN)?
Answer: 39%

Question: What about the inhibition of growth at 10 µM [21] of the same molecule?
Answer: 40%

Question: And the inhibition of growth at 10 µM [22]?
Answer: 70%

Question: What about the inhibition of growth at 10 µM [23] of the same molecule?
Answer: 61%

Question: What about the inhibition of growth at 10 µM [24] of the same molecule?
Answer: 30%

Question: And the inhibition of growth at 10 µM (Malme-3M)?
Answer: 40%

Question: What about the inhibition of growth at 10 µM (T47D) of the same molecule?
Answer: 39%

Question: And the inhibition of growth at 10 µM [25]?
Answer: 28%
